# From patent US20220242870A1, “HETEROCYCLE-FUSED PYRIMIDINE DERIVATIVE AND USE THEREOF” (VORONOI Inc., priority 2019, published 2022)
# Legend:
# Experiment in all cases: scanMAX kinase assay panel
# Format in all cases: binding
# MERTK = molecular target: T1, MERTK (Homo sapiens, UniProt Q12866); conditions: read-out: control percentage (% control)
# T1 construct: purchased DiscoverX scanMAX kinase assay panel
# Description: (§1) The activities of the compounds according to the present invention to more diverse enzymes were evaluated. Specifically, it was decided that the enzyme selectivity of Example 74 selected from the compounds of Examples 1 to 129 was measured at the request of DiscoverX, and the experiment was conducted using a scanMAX™ kinase assay panel. At this time, as a drug to treat the enzyme, a solution prepared by dissolving in DMSO at a concentration of 1 μM was used, and the control percentage (% control) was determined by the method of Equation 1 below, and the results were shown in Table 2 below.
# (§2) In Equation above, the positive control and negative control mean compounds showing control percentages of 0% and 100% as DMSO, respectively.
# MAP3K3 = molecular target: T2, MAP3K3 (Homo sapiens, UniProt Q99759); conditions: read-out: control percentage (% control)
# T2 construct: purchased DiscoverX scanMAX kinase assay panel
# Description: as §1, §2
# MAP4K3 = molecular target: T3, MAP4K3 (Homo sapiens, UniProt Q8IVH8); conditions: read-out: control percentage (% control)
# T3 construct: purchased DiscoverX scanMAX kinase assay panel
# Description: as §1, §2
# EGFR = molecular target: T4, EGFR (Homo sapiens, UniProt P00533); conditions: read-out: control percentage (% control)
# T4 construct: purchased DiscoverX scanMAX kinase assay panel
# Description: as §1, §2
# FLT3(ITD, D835V) = conditions: 1 μM
# Description: as §1, §2
# CDKL2 = molecular target: T5, CDKL2 (Homo sapiens, UniProt Q92772); conditions: read-out: control percentage (% control)
# T5 construct: purchased DiscoverX (scanMAX panel, contract assay)
# Description: as §1, §2
# [1] = molecular target: T6, JAK1(JH2domain-pseudokinase) (Homo sapiens, UniProt P23458); conditions: read-out: control percentage (% control)
# T6 construct: JAK1(JH2domain-pseudokinase); purchased DiscoverX scanMAX kinase assay panel
# Description: as §1, §2
# AXL = molecular target: T7, AXL (Homo sapiens, UniProt P30530); conditions: read-out: control percentage (% control)
# T7 construct: purchased DiscoverX (scanMAX panel, contract assay)
# T7 sequence (P30530 26-894): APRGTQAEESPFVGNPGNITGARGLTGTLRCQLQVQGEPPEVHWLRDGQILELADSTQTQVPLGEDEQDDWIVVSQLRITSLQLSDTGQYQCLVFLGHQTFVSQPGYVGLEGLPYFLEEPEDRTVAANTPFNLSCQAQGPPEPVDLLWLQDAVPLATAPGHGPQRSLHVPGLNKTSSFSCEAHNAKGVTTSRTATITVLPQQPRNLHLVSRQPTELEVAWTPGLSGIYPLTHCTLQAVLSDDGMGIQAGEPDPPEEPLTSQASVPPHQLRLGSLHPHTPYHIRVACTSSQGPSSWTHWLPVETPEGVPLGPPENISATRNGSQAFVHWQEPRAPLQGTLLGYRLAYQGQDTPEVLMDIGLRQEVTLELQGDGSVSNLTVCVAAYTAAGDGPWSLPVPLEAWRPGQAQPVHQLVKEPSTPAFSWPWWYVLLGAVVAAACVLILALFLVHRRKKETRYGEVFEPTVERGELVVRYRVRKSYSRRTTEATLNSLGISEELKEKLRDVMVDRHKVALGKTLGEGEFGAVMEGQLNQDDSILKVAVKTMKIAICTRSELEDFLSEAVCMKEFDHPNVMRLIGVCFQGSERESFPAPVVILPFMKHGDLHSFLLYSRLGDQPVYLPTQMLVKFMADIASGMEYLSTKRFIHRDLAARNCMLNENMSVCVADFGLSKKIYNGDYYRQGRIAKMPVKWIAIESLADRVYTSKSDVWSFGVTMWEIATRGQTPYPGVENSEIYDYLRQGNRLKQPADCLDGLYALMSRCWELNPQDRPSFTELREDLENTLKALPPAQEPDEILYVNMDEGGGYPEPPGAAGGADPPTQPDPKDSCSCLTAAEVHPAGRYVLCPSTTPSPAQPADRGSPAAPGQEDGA
# Description: as §1, §2
# CLK1 = molecular target: T8, CLK1 (Homo sapiens, UniProt P49759); conditions: read-out: control percentage (% control)
# T8 construct: purchased DiscoverX (scanMAX panel, contract assay)
# T8 sequence (P49759 whole entry): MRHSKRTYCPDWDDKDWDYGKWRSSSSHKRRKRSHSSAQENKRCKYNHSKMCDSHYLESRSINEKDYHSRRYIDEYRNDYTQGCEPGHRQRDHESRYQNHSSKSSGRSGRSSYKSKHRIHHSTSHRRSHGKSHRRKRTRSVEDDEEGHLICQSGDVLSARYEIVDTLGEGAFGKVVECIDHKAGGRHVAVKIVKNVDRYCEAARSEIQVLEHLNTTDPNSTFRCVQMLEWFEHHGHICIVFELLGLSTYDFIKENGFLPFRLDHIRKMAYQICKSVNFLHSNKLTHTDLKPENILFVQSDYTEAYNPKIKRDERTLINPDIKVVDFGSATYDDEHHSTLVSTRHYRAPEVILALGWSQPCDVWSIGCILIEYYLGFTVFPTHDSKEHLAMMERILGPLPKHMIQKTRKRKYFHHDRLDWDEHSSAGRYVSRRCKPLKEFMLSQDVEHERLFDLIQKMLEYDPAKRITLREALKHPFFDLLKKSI
# Description: as §1, §2
# JNK2 = molecular target: T9, JNK2 (Homo sapiens, UniProt P45984); conditions: read-out: control percentage (% control)
# T9 construct: purchased DiscoverX scanMAX kinase assay panel
# Description: as §1, §2
# LRRK2(G2019S) = molecular target: T10, LRRK2(G2019S) (Homo sapiens, UniProt Q5S007, G2019S); conditions: read-out: control percentage (% control)
# T10 construct: purchased DiscoverX scanMAX kinase assay panel
# Description: as §1, §2
# FLT3(ITD) = conditions: 1 μM
# Description: as §1, §2
# RET(M918T) = molecular target: T11, RET(M918T) (Homo sapiens, UniProt P07949, M918T); conditions: read-out: control percentage (% control)
# T11 construct: purchased DiscoverX scanMAX kinase assay panel
# Description: as §1, §2
# KIT(L576P) = molecular target: T12, KIT(L576P) (Homo sapiens, UniProt P10721, L576P); conditions: read-out: control percentage (% control)
# T12 construct: purchased DiscoverX scanMAX kinase assay panel
# Description: as §1, §2
# ITK = molecular target: T13, ITK (Homo sapiens, UniProt Q08881); conditions: read-out: control percentage (% control)
# T13 construct: purchased DiscoverX scanMAX kinase assay panel
# Description: as §1, §2
# FLT3(D835V) = molecular target: T14, FLT3(D835V) (Homo sapiens, UniProt P36888, D835V); conditions: read-out: control percentage (% control)
# T14 construct: purchased DiscoverX scanMAX kinase assay panel
# Description: as §1, §2
# FLT3 = molecular target: T15, FLT3 (Homo sapiens, UniProt P36888); conditions: read-out: control percentage (% control)
# T15 construct: purchased DiscoverX scanMAX kinase assay panel
# Description: as §1, §2
# [2] = molecular target: T16, JAK2(JH1domain-catalytic) (Homo sapiens, UniProt O60674); conditions: read-out: control percentage (% control)
# T16 construct: JAK2(JH1 domain-catalytic); purchased DiscoverX scanMAX kinase assay panel
# Description: as §1, §2
# EGFR(E746-A750del) = molecular target: T17, EGFR(E746-A750del) (Homo sapiens, UniProt P00533, DEL746-750); conditions: read-out: control percentage (% control)
# T17 construct: purchased DiscoverX scanMAX kinase assay panel
# Description: as §1, §2
# EGFR(L861Q) = molecular target: T18, EGFR(L861Q) (Homo sapiens, UniProt P00533, L861Q); conditions: read-out: control percentage (% control)
# T18 construct: purchased DiscoverX scanMAX kinase assay panel
# Description: as §1, §2
# MUSK = molecular target: T19, MUSK (Homo sapiens, UniProt O15146); conditions: read-out: control percentage (% control)
# T19 construct: purchased DiscoverX scanMAX kinase assay panel
# Description: as §1, §2
# ARK5 = molecular target: T20, ARK5 (Homo sapiens, UniProt O60285); conditions: read-out: control percentage (% control)
# T20 construct: purchased DiscoverX (scanMAX panel, contract assay)
# T20 sequence (O60285 whole entry): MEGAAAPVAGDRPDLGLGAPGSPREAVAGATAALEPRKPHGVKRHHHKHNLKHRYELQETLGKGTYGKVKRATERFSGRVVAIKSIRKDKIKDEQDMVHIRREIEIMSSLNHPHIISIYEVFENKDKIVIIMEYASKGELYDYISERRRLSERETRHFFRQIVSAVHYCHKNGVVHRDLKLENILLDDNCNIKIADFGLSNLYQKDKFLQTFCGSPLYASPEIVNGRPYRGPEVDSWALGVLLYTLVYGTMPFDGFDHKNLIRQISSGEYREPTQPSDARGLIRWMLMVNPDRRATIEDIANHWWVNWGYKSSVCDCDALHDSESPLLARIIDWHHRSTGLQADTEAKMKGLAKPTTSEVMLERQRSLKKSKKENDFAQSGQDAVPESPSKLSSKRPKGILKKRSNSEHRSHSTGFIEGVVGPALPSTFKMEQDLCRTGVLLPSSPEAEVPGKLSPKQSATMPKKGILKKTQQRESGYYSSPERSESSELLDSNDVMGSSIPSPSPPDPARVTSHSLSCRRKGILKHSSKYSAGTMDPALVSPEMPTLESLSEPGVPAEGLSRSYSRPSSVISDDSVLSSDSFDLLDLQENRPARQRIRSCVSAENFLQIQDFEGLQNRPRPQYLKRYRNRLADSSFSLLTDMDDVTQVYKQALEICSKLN
# Description: as §1, §2
# MAP4K4 = molecular target: T21, MAP4K4 (Homo sapiens, UniProt O95819); conditions: read-out: control percentage (% control)
# T21 construct: purchased DiscoverX scanMAX kinase assay panel
# Description: as §1, §2
# RET(V804M) = molecular target: T22, RET(V804M) (Homo sapiens, UniProt P07949, V804M); conditions: read-out: control percentage (% control)
# T22 construct: purchased DiscoverX scanMAX kinase assay panel
# Description: as §1, §2
# BLK = molecular target: T23, BLK (Homo sapiens, UniProt P51451); conditions: read-out: control percentage (% control)
# T23 construct: purchased DiscoverX (scanMAX panel, contract assay)
# T23 sequence (P51451 whole entry): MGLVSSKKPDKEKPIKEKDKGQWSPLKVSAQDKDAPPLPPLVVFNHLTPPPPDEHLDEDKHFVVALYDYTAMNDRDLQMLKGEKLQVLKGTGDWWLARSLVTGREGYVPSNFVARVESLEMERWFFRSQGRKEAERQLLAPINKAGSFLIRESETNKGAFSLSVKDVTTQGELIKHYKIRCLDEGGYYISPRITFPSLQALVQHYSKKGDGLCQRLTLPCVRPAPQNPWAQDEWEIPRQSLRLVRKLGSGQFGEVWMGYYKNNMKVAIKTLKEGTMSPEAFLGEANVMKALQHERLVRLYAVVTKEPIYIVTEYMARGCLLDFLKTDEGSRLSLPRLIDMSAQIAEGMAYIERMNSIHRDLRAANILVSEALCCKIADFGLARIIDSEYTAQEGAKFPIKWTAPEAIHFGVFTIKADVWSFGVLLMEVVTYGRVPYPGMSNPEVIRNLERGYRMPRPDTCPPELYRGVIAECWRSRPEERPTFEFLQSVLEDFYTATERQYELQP
# Description: as §1, §2
# MARK3 = molecular target: T24, MARK3 (Homo sapiens, UniProt P27448); conditions: read-out: control percentage (% control)
# T24 construct: purchased DiscoverX scanMAX kinase assay panel
# Description: as §1, §2
# ALK(C1156Y) = molecular target: T25, ALK(C1156Y) (Homo sapiens, UniProt Q9UM73, C1156Y); conditions: read-out: control percentage (% control)
# T25 construct: purchased DiscoverX (scanMAX panel, contract assay)
# Description: as §1, §2
# [3] = molecular target: T26, ABL1(T315I)-phosphoryIated (Homo sapiens, UniProt P00519, T315I); conditions: read-out: control percentage (% control)
# T26 construct: purchased DiscoverX (scanMAX panel, contract assay)
# Description: as §1, §2
# LTK = molecular target: T27, LTK (Homo sapiens, UniProt P29376); conditions: read-out: control percentage (% control)
# T27 construct: purchased DiscoverX scanMAX kinase assay panel
# Description: as §1, §2
# FLT3(D835H) = molecular target: T28, FLT3(D835H) (Homo sapiens, UniProt P36888, D835H); conditions: read-out: control percentage (% control)
# T28 construct: purchased DiscoverX scanMAX kinase assay panel
# Description: as §1, §2
# TNIK = molecular target: T29, TNIK (Homo sapiens, UniProt Q9UKE5); conditions: read-out: control percentage (% control)
# T29 construct: purchased DiscoverX
# T29 sequence (Q9UKE5 whole entry): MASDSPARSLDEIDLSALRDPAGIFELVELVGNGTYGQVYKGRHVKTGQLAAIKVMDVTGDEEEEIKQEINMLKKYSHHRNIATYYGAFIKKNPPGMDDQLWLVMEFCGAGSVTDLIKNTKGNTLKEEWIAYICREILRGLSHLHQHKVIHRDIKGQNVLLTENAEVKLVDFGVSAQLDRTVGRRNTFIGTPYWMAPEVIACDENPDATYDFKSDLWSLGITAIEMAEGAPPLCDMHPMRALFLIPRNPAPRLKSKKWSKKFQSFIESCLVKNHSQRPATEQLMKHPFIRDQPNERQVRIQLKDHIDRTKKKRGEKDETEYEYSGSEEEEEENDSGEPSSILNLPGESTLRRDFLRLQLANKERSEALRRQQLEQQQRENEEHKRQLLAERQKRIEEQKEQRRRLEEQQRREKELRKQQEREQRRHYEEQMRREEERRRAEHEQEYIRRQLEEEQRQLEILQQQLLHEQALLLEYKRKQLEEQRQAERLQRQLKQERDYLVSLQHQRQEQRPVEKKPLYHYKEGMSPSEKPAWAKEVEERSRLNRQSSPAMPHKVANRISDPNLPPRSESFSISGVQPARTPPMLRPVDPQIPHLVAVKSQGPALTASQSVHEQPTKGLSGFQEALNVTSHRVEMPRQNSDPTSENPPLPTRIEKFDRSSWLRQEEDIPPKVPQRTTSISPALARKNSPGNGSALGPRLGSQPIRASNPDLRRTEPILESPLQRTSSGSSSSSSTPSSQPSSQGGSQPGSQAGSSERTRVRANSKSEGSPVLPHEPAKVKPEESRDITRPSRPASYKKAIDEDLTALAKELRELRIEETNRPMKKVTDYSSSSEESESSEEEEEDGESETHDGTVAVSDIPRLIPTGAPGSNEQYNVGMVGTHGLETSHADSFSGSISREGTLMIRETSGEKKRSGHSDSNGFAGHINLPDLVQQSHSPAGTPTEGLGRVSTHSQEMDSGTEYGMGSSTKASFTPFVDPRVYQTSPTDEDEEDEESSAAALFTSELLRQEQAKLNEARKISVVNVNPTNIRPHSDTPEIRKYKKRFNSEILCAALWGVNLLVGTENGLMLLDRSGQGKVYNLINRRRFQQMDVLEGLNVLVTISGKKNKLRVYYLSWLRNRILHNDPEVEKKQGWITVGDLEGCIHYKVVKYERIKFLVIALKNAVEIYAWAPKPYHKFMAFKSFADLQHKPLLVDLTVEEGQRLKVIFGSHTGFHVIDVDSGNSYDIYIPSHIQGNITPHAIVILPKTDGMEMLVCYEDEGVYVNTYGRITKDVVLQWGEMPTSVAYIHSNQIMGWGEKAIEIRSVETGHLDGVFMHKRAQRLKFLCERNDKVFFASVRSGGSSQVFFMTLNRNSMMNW
# Description: as §1, §2
# JNK1 = molecular target: T30, JNK1 (Homo sapiens, UniProt P45983); conditions: read-out: control percentage (% control)
# T30 construct: purchased DiscoverX scanMAX kinase assay panel
# Description: as §1, §2
# PIP5K1A = molecular target: T31, PIP5K1A (Homo sapiens, UniProt Q99755); conditions: read-out: control percentage (% control)
# T31 construct: purchased DiscoverX scanMAX kinase assay panel
# Description: as §1, §2
# DMPK = molecular target: T32, DMPK (Homo sapiens, UniProt Q09013); conditions: read-out: control percentage (% control)
# T32 construct: purchased DiscoverX scanMAX kinase assay panel
# Description: as §1, §2
# ULK1 = molecular target: T33, ULK1 (Homo sapiens, UniProt O75385); conditions: read-out: control percentage (% control)
# T33 construct: purchased DiscoverX
# T33 sequence (O75385 whole entry): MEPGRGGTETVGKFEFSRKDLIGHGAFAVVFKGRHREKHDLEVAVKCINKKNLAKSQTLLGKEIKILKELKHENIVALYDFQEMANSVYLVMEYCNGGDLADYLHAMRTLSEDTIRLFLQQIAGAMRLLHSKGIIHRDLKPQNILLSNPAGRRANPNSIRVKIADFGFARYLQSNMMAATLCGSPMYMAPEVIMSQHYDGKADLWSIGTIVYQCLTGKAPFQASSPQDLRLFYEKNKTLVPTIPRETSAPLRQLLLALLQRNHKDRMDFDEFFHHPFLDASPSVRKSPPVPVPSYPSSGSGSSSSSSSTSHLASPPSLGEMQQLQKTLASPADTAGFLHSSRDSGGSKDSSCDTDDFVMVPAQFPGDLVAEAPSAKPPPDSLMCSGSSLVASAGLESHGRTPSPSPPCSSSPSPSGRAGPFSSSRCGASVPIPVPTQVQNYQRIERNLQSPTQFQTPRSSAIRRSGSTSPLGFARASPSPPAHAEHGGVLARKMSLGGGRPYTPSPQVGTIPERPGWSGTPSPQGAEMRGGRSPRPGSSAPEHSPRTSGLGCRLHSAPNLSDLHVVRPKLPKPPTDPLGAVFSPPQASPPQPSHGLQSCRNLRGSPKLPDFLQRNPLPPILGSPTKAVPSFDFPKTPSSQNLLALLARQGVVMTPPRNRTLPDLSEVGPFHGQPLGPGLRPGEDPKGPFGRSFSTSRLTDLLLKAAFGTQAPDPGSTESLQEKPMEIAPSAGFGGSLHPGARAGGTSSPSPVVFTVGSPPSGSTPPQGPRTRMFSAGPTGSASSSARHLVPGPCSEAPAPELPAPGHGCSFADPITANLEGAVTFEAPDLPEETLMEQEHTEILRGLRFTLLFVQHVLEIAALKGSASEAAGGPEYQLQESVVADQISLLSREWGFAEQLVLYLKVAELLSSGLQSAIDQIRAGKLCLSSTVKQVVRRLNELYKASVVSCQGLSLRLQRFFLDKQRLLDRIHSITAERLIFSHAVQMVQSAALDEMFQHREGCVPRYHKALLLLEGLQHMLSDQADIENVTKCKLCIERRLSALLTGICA
# Description: as §1, §2
compound,measurement,setting,value
"CN1CCN(c2ccc(Nc3nc(N4OCC[C@H]4c4ccccc4)c4cc[nH]c4n3)cc2)CC1 [Example 74, (S)-N-(4-(4-methylpiperazin-1-yl)phenyl)-4-(3-phenylisoxazolidin-2-yl)-7H-pyrrolo[2,3-d]pyrimidin-2-amine]",remaining binding at 1 µM,MERTK,29%
same,remaining binding at 1 µM,MAP3K3,25%
same,remaining binding at 1 µM,MAP4K3,13%
same,remaining binding at 1 µM,EGFR,28%
same,control percentage (% control),"FLT3(ITD, D835V)",0%
same,remaining binding at 1 µM,CDKL2,8.2%
same,remaining binding at 1 µM,[1],1.2%
same,remaining binding at 1 µM,AXL,3.2%
same,remaining binding at 1 µM,CLK1,3.4%
same,remaining binding at 1 µM,JNK2,29%
same,remaining binding at 1 µM,LRRK2(G2019S),25%
same,control percentage (% control),FLT3(ITD),0.45%
same,remaining binding at 1 µM,RET(M918T),20%
same,remaining binding at 1 µM,KIT(L576P),31%
same,remaining binding at 1 µM,ITK,5.1%
same,remaining binding at 1 µM,FLT3(D835V),1.7%
same,remaining binding at 1 µM,FLT3,3.9%
same,remaining binding at 1 µM,[2],0%
same,remaining binding at 1 µM,EGFR(E746-A750del),0%
same,remaining binding at 1 µM,EGFR(L861Q),30%
same,remaining binding at 1 µM,MUSK,0.4%
same,remaining binding at 1 µM,ARK5,8.9%
same,remaining binding at 1 µM,MAP4K4,30%
same,remaining binding at 1 µM,RET(V804M),3.9%
same,remaining binding at 1 µM,BLK,19%
same,remaining binding at 1 µM,MARK3,5.3%
same,remaining binding at 1 µM,ALK(C1156Y),15%
same,remaining binding at 1 µM,[3],8.4%
same,remaining binding at 1 µM,LTK,27%
same,remaining binding at 1 µM,FLT3(D835H),21%
same,remaining binding at 1 µM,TNIK,27%
same,remaining binding at 1 µM,JNK1,2.7%
same,remaining binding at 1 µM,PIP5K1A,1.2%
same,remaining binding at 1 µM,DMPK,0.65%
same,remaining binding at 1 µM,ULK1,8.1%
